Experimental findings from patent US9708289B2, “Imidazole diketone compound and use thereof” (HINOVA PHARMACEUTICALS INC., priority 2013, dated 2017) are described below.

Structures are written as SMILES.

The nature of data set [1]: Evaluation of pharmacokinetics in mice. Format: in vivo, Kunming mice (KM mice). Particulars: 10 mg/kg intragastric; for Tmax: Kunming (KM), mouse, po; for Tmax / Cmax: male KM mice, plasma; for Cmax compared with undeuterated compound 10: mice. The protocol: 10 mg/kg compound 10, 14, 17, 20 were intragastrically administered to Healthy Kunming mice (KM mice), male, weighing 18-20 g. Compounds were dissolved in DMSO:PEG400:H2O 1:5:14. The volume of administration was 10 mL/kg. Before testing, the mice fasted for 12 h and drunk water ad libitum. Then, the mice were fed together at 2 h after administration. 0.3 mL of blood were took from 3 mice through retrobulbar venous plexus at 0.5, 1.0, 2.0, 4.0, 6.0 and 24 h after administration, placed in heparinized tubes, and centrifuged for 5 min at 11000 rpm. The plasma was separated and frozen in a refrigerator at −20° C. 100 uL of serum was transferred with a pipettor into a clean plastic centrifuge tube marked with compound's name and time point, and diluted with acetonitrile (CH3CN) and centrifuged. The concentration of drug was analyzed by LC-MS. Serum was stored at −80° C. before analysis. The pharmacokinetic parameters of deuterated compound (compound 14, 17, and 20) and undeuterated compound (compound 10) were show in following table.

The nature of data set [2]: Evaluation of pharmacokinetics in rats. Format: in vivo, SD rats. To be noted: 10 mg/kg intragastric; for AUCINF_obs / Cmax / Tmax / AUC(0-t) / MRT / half-life: male SD rats, mean, n = 4. The protocol:
10 mg/kg compound 10, and 14 were intragastrically administered to SD rats male, weighing […]. Compounds were dissolved in DMSO:PEG400:H2O 1:5:14. The volume of administration was 10 mL/kg. Conventional methods were used for the results evaluation.

The test system of data set [3] is human prostate cancer LNCaP. The data set can be described thus: Inhibition of the growth of prostate cancer cells (MTT, R1881-stimulated). Format: cell-based. Particulars: for IC50: Homo sapiens, R1881 added, 96 hours, MTT, read-out: IC50, inhibition activity on LNCap/AR cell. The protocol: The ability of compounds to inhibit the growth of prostate cancer cells was tested:
First, the human prostate cancer LNCaP (purchased from ATCC, USA) was transferred to a RPM11640 culture medium containing 10% charcoal-stripped fetal bovine serum (FBS). After cultured for three days, the cells were digested with 0.25% trypsin and counted through trypan blue staining. The cells were plated, with 100 μL cell suspension containing 4000 cells per well. 200 μL medium was added to the wells around the cell plate for avoiding edge effects.
The next day, 6 drug concentrations was prepared (48.6 μM, 19.44 μM, 7.776 μM, 3.11 μM, 1.24 μM, 0.5 μM) before administration, and 100 μL of corresponding compound at corresponding concentration was added into each well of a cell plate. The cell plate was placed in a cell incubator for 30 min, 10 μL of 4 nM R1881 was added into each well and homogeneously mixed. Upon the addition of R1881, the cell plate was placed in a cell incubator and incubated at 37° C., under 5% CO2 for 96 hours. Afterwards, 40 μL of MTT (prepared in PBS, concentration is 2.5 mg/mL) was added into each wells, and incubated at 37° C. for 2 hours. The supernatant was sucked off, and 100 μL of DMSO was added into each well. The plate was shaken by a vibrator for 10 min for dissolving formazan. The plate was read at 570 nm wavelength using a microplate reader in the unit of OD. The inhibition rate of test compounds was calculated with the following equation: IR (%)=(ODcontrol−ODsample)/(ODcontrol−ODblank)×100%
The inhibition rate curve of test compounds was plotted using the software XLFit (Formula 205), which can calculate the 50% inhibition rate, i.e. IC50.

For orientation: Tmax means the time from dosing to the highest level. Broadly, the Cmax is the peak of the concentration-time curve. Broadly, the AUC(0-t) is the area under the concentration-time curve up to a stated or last time point. Broadly, the MRT is a mean duration of stay, worked out from the concentration-time curve. The half-life is how long it takes for the measured level to halve.

For the compound `[2H]c1cc(C(=O)NC)c(F)c([2H])c1N1C(=S)N(c2cnc(C#N)c(C(F)(F)F)c2)C(=O)C12CCC2` [Compound 17, 4-[7-(6-cyano-5-trifluoromethyl-3-pyridyl)-8-oxo-6-thio-5,7-diazaspiro [3,4]-5-octyl]-3,5-bideuterium-2-fluoro-N-methyl-benzamide], in data set [1], the Tmax came to 6 h and the peak concentration (Cmax) was determined as 3480 ng/mL.
Take `CNC(=O)c1ccc(N2C(=S)N(c3cnc(C#N)c(C(F)(F)F)c3)C(=O)C23CCC3)cc1F` [Compound 10, 4-[7-(6-cyano-5-trifluoromethyl-3-pyridyl)-8-oxo-6-thio-5,7-diazaspiro [3, 4]-5-octyl]-2-fluoro-N-methyl-benzamide, reference compound]: in data set [1], the Tmax was determined as 6 h and the maximum concentration (Cmax) stood at 3320 ng/mL. In addition, in data set [2], the AUCINF_obs was found to be 14752 ng·h/mL, the Cmax was found to be 946.0 ng/mL and the Tmax is 3.500 h. Also, in data set [2] (rat, in vivo, po), the AUC(0-t) is 13100 ng·h/mL, the mean residence time (MRT) amounted to 10.7 h and the half-life was 7.38 h. Besides, the IC50 in data set [3] was 637 nM.
For the compound `[2H]c1cc(C(=O)NC([2H])([2H])[2H])c(F)c([2H])c1N1C(=S)N(c2cnc(C#N)c(C(F)(F)F)c2)C(=O)C12CCC2` [Compound 20, 4-[7-(6-cyano-5-trifluoromethyl-3-pyridyl)-8-oxo-6-thio-5,7-diazaspiro[3,4]-5-octyl]-3,5-bideuterium-2-fluoro-N-trideuteromethyl-benzamide], in data set [1], the time to peak (Tmax) worked out at 4 h, the Cmax was 3940 ng/mL and the “Cmax compared with undeuterated compound 10” value was “significantly increased”.
`[2H]C([2H])([2H])NC(=O)c1ccc(N2C(=S)N(c3cnc(C#N)c(C(F)(F)F)c3)C(=O)C23CCC3)cc1F` [Compound 14, 4-[7-(6-cyano-5-trifluoromethyl-3-pyridyl)-8-oxo-6-thio-5,7-diazaspiro [3, 4]-5-octyl]-2-fluoro-N-trideuterated methyl-benzamide]: in data set [1], the Tmax was determined as 4 h, the Cmax came out at 4480 ng/mL and the “Cmax compared with undeuterated compound 10” value was “significantly increased”. In addition, in data set [2], the AUCINF_obs stood at 28729 ng·h/mL and the time to peak (Tmax) is listed as 3.500 h. Further, in data set [2] (rat, in vivo, po), the exposure AUC(0-t) was 24100 ng·h/mL, the MRT came out at 13 h and the half-life is 8.93 h. Besides, the Cmax in data set [2] (rat, in vivo, po, read-out: Cmax) was found to be 1700 ng/mL. Besides, in data set [2] (rats), the “AUC relative to compound 10” value is “about 2 fold”, the “Cmax relative to compound 10” value is listed as “about 2 fold” and the “half-life compared with compound 10” value was “longer half-life”. Further, in data set [3], the “inhibition on the growth of prostate cancer cell compared with compound 10” value is listed as “better inhibition” and the IC50 worked out at 280 nM.
